Values of other authors as cited in patent US20140140997A1, “Methods of Treating Retroviral Infections in Felines” (CytoDyn Inc., priority 2011, published 2014).

How the values were obtained:
CD11a binding to ICAM-1 = conditions: Weitz-Schmidt et al. 2004; Welzenbach et al. 2002
LFA-1 = conditions: Wang et al. 2009; Almog 2003

For `CC[C@H](C)C(=O)O[C@H]1C[C@@H](C)C=C2C=C[C@H](C)[C@H](CC[C@@H]3C[C@H](CC(=O)NC)N(Cc4ccc(O)c(OC)c4)C(=O)O3)[C@H]21` [LFA878], the “prevention of CD11a binding to ICAM-1” value (CD11a binding to ICAM-1) is listed as “preventing the ability of CD11a to bind to ICAM-1”.

In the case of `CCC(C)(C)C(=O)O[C@H]1C[C@@H](C)C=C2C=C[C@H](C)[C@H](CC[C@@H]3C[C@@H](O)CC(=O)O3)[C@H]21` [simvastatin, (1S,3R,7S,8S,8aR)-8-(2-((2R,4R)-4-hydroxy-6-oxotetrahydro-2H-pyran-2-yl)ethyl)-3,7-dimethyl-1,2,3,7,8,8a-hexahydronaphthalen-1-yl 2,2-dimethylbutanoate], the “inhibition of LFA-1 activation” value (LFA-1) is listed as “inhibit LFA-1 activation”.

For `O=C(NCc1cccc(O)c1)c1cc(Cl)c(C(=O)N[C@@H](CNC(=O)c2cc(O)cc(O)c2)C(=O)O)c(Cl)c1` [XVA143], the “prevention of CD11a binding to ICAM-1” value (CD11a binding to ICAM-1) is given as “preventing the ability of CD11a to bind to ICAM-1”.

In the case of `CC[C@H](C)C(=O)O[C@H]1C[C@@H](C)C=C2C=C[C@H](C)[C@H](CC[C@@H]3C[C@@H](O)CC(=O)O3)[C@H]21` [Lovastatin, (1S,3R,7S,8S,8aR)-8-{2-[(2R,4R)-4-hydroxy-6-oxooxan-2-yl]ethyl}-3,7-dimethyl-1,2,3,7,8,8a-hexahydronaphthalen-1-yl (2S)-2-methylbutanoate], the “inhibition of LFA-1 activation” value (LFA-1) is given as “inhibit LFA-1 activation”.
